Broadly, the IC50 is the midpoint of a concentration-inhibition curve.

Where two headings read alike, the source gives them in different places.

One series relates to KunMing (KM) mice. Put plainly: Hepatotoxicity study in mice (GSH-depleted by BSO, CYP450 inhibition by ABT): ALT, hepatic GSH, histopathology. Particulars: for ALT activity with additional ABT treatment / histopathological evaluation of liver, with ABT: 300 mg/kg oral alone or with BSO, plus ABT 100 mg/kg i.p.; for hepatic GSH level with ABT: 300 mg/kg oral plus ABT 100 mg/kg i.p.; for histopathological evaluation of liver, co-treatment with BSO: 300 mg/kg oral plus BSO 650 mg/kg i.p., 6 or 24 h. The method, then:
Male 6-week-old KunMing (KM) mice were purchased from the Animal Institute of the Tianjin University of Traditional Chinese Medicine (Tianjin, China), and were used after a 1-week acclimatization period. The animals were housed in mice cages in a unidirectional airflow room under controlled conditions (20–24 °C, 12:12-h light:dark cycles, and free access to water). We assured that all animals received humane care according to the criteria outlined in the “Guide for the Care and Use of Laboratory Animals” prepared by the National Academy of Sciences and published by the National Institutes of Health ((NIH) publication 86–23 revised 1985).
In the hepatotoxicity study, the mice were randomly assigned to 22 groups (n = 10/group). The mice were intraperitoneally injected with BSO (650 mg/kg) in saline (0.2 mL/20 g). The intraperitoneal dosing of ABT (100 mg/kg) in saline (0.2 mL/20 g) was simultaneous with the BSO dosing. […] Food was removed 14–16 h before BSO dosing, and was supplied again 6 h after administration of the test compounds. At 6 and 24 h, blood was collected by eyeball removal, and then the liver was removed. Plasma was separated from these blood samples, and alanine aminotransferase (ALT) was determined with a commercial kit, the GPT-UV test (Nanjing jiancheng Bioengineering Institute). A piece of each liver sample was fixed in 10% formalin, embedded in paraffin wax, sectioned, and stained with hematoxylin and eosin for histopathological evaluation.
Statistical analysis. The results from the serum ALT assay were analyzed by Kruskal–Wallis non-parametric analysis of variance followed by Mann–Whitney’s U test. For the data of the GSH assay and CYP450s relative activity, comparisons between the two groups were made by independent-samples t test. SPASS 11.5 was used for these statistical analyses. Differences were considered significant when p < 0.05 or p < 0.01.

Series [1] can be described thus: Phase I metabolism in mice liver microsomes, metabolite quantitation by UPLC-MS/MS MRM. Type of series: in vitro ADME. The method, then:
(§1) Phase I Metabolism. […] Subsequently, 150 μL of NADPH solution (final concentration of 1 mM) was added to each reaction mixture. After incubation at 37 °C for 90 min in a shaking water bath, the reaction was terminated by adding 600 μL of ice-cold methanol. The contents were vortexed for 30 s and then centrifuged at 4000 rpm for 15 min. The metabolites of psoralen and isopsoralen in the supernatant were identified by UPLC-MS/MS.
(§2) Metabolite analysis by UPLC-MS/MS. The UPLC/MS/MS method was carried out using a Waters Acquity UPLC Sample Manager and a Waters Acquity UPLC Binary Solvent Manager connected to a Waters Quattro Premier XE triple-quadruple mass spectrometer equipped with a combined ESI probe and Mass Lynx 1.4 software (Waters, Milford, MA, USA). An Acquity UPLC BEH C18 column (1.7 µm, 2.1 mm × 100 mm) was used. The instrument settings were as follows: ESI+; source temperature, 120 °C; dissolution temperature, 350 °C; capillary voltage, 3.2 kV; dissolution N2, 600 L/h; cone N2, 50 L/h. Acquisition was carried out from m/z 50 Da to 1000 Da in the total ion scan mode. MS/MS spectra were acquired from m/z 50 Da to 600 Da in the daughter ion scan mode. The solvent system consisted of solvent A (0.1% CH3COOH) and solvent B (100% ACN). The flow rate was 0.2 mL/min. The gradient elution method was 5 to 80% B over 12 min, followed by 5% B from 12 to 15 min.
(§3) Quantitation analysis of psoralen and isopsoralen metabolites by UPLC-MS/MS. […] The HPLC method and electrospray ionization were performed with the same conditions as those for metabolite analysis by UPLC-MS/MS in liver microsomes, except for the cone (30 V) and collision energy (20 V).
Background: Liver microsomes are a subcellular fraction often used to study metabolism.

Series [2] is described as follows: Phase I metabolism in human liver microsomes, metabolite quantitation by UPLC-MS/MS MRM. In kind it is in vitro ADME. The method, then:
as §1, §2, §3

For the next series, the system named is mice. The note with it: oral 40 mg daily for 28 days in mice; cited from earlier work.
A further series addresses CYP3A4 (Homo sapiens, UniProt P08684). Put plainly: IC50 shift assay (pre-incubation with/without NADPH). In kind it is in vitro ADME. The note with it: for IC50: HLM; for IC50 Shift (fold): IC50 (−) NADPH versus (+) NADPH pre-incubation. The method, then:
IC50 shift assay. In the present study, an IC50 shift assay was performed using a two-step procedure. […] After pre-incubation, a 0.02 mL aliquot of the mixture was added to a mixture containing a standard CYP substrate (final concentrations at the Km) in 0.18 mL of potassium phosphate buffer to measure CYP activities. After incubation for 15 min at 37 °C, the reactions were ceased by adding four volumes of pre-cooled methanol. The supernatants were centrifuged at 14,000 rpm for 15 min and then stored at −20 °C until the LC/MS/MS analysis of metabolites.
Analysis of samples. The LC/MS/MS method was conducted as described in [59].
IC50 value calculation. The IC50 value was calculated using GraphPad Prism (version 4.0) software (GraphPad Software, San Diego, CA, USA).

The subject of a further series is patients. Set-up: method as in doi:10.5021/ad.1995.7.1.51. Particulars: 4 of 80 patients, within 3.5–20 months of commencement of PUVA 5-MOP; cited from earlier work.
The next series has as its system animals. Set-up: method as in PMID 19640237. Particulars: 560 mg/kg daily for 12 days; cited from earlier work.
[3] abbreviates: MRM mode, parent 50 μM, MLM 1.0 mg/mL, NADPH 1 mM, 90 min.
Setting [4] is: MRM mode, parent 50 μM, HLM 1.0 mg/mL, NADPH 1 mM, 90 min.
[5] abbreviates: 300 mg/kg oral in combination with BSO 650 mg/kg i.p., 6 h.
Where [6] appears, read: 300 mg/kg oral in combination with BSO 650 mg/kg i.p., 24 h.

CYP3A4, sequence (P08684 whole entry): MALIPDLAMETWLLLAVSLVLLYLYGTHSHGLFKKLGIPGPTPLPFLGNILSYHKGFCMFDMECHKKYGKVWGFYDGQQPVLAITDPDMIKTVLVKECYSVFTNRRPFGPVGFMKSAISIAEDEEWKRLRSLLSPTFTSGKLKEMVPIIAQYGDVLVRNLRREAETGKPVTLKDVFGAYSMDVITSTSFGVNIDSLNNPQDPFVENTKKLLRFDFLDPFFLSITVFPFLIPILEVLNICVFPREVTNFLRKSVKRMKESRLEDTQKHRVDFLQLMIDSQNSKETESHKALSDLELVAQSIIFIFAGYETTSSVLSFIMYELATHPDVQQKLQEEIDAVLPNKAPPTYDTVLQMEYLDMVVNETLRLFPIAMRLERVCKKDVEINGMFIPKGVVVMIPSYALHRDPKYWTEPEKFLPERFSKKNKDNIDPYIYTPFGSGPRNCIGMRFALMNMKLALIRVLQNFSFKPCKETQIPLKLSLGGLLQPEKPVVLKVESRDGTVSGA

With `CCCCS(=N)(=O)CCC(N)C(=O)O` [BSO, L-buthi-onine-S, R-sulfoxinine, reference compound], the “plasma ALT activity after sole treatment” value in the series on KunMing (KM) mice (BSO 650 mg/kg i.p. or ABT 100 mg/kg i.p. alone, at 24 h) is on record as “no significant changes”. Besides, in the series with KunMing (KM) mice (BSO 650 mg/kg i.p., over 24 h), the “hepatic GSH level after treatment with BSO alone” value is reported as “time-dependent decrease at least for 6 h, while returning to a normal level at 24 h” and the “liver hazard (pathological section) after BSO alone” value is “without hazard to the liver”.

In the case of `O=C(O)Cc1cc2ccc(=O)oc2cc1O` [M4, 6-carboxymethyl-7-hydroxyl-coumarin], the “Peak Area MLM” value in series [1] (setting [3]) is recorded as 98,864. Besides, the “Peak Area HLM” value in series [2] (setting [4]) is recorded as 66,831.

`O=c1ccc2c(O)cc3occc3c2o1` [M′2]: the “Peak Area MLM” value in series [1] (setting [3]) stood at 4707. Further, the “Peak Area HLM” value in series [2] (setting [4]) turned out to be 1349.

Turning to `O=c1ccc2ccc3occc3c2o1` [Isopsoralen], in the series on KunMing (KM) mice, the “ALT activity with additional ABT treatment” value is reported as “completely suppressed the elevation of ALT activity”. In addition, the “histopathological evaluation of liver, with ABT” value with KunMing (KM) mice is “completely relieved the granular degeneration and vacuolation”. Further, the “plasma ALT activity” value in the series with KunMing (KM) mice (setting [5]) was 30.08 IU/L; in the series with KunMing (KM) mice (setting [6]) it was 68.99 IU/L; with KunMing (KM) mice (300 mg/kg oral, alone, 6 h), 22.73 IU/L; with KunMing (KM) mice (300 mg/kg oral, alone, 24 h), 43.20 IU/L. Besides, in the series with KunMing (KM) mice (at 24 h), the “hepatic GSH level with ABT” value is listed as “ABT prevented the decrease”. Also, the “histopathological evaluation of liver, co-treatment with BSO” value in the series on KunMing (KM) mice is reported as “did not aggravate the histopathology”. In addition, the “histopathological evaluation of liver” value in the series on KunMing (KM) mice (300 mg/kg oral, alone, 6 h) is on record as “weak granular degeneration”; in the series on KunMing (KM) mice (300 mg/kg oral, alone, 24 h), “diffuse vacuolation”. The “hepatic GSH level” value in the series with KunMing (KM) mice (300 mg/kg oral, alone, at 24 h) is listed as 9.94 ± 8.57 µM/g protein. For the same compound, in the series on mice, the liver injury findings result is “elevated serum ALT, AST, and/or ALP levels”. The IC50 on CYP3A4 (IC50 (+) NADPH, 30 min pre-incubation with NADPH) is 9.59 ± 1.04 µM; at CYP3A4 (IC50 (−) NADPH, 30 min pre-incubation without NADPH), 96.8 ± 2.21 µM. For the same compound, the “IC50 Shift (fold)” value on CYP3A4 is recorded as 10.1 fold; on CYP3A4 (listed as isopsoralen), over 3 fold.

With `O=c1ccc2cc3ccoc3c(O)c2o1` [M2], the “Peak Area MLM” value in series [1] (mouse, microsomes, 1.5 h, 50 μM, pH 7.4) worked out at 8655. Further, the “Peak Area HLM” value in series [2] (human, microsomes, 1.5 h, 50 μM, pH 7.4) was 502.

On to `O=c1ccc2ccc3c(c2o1)C(O)C(O)O3` (stereo not drawn) [M′5], for which, in series [1] (setting [3]), the “Peak Area MLM” value was 7725. The “Peak Area HLM” value in series [2] (setting [4]) amounted to 1627.

Turning to `O=c1ccc2cc3ccoc3cc2o1` [Psoralen], in the series with KunMing (KM) mice, the “ALT activity with additional ABT treatment” value is on record as “completely suppressed the elevation of ALT activity”. In the series with KunMing (KM) mice, the “histopathological evaluation of liver, with ABT” value is “completely relieved the granular degeneration and vacuolation”. Also, the “plasma ALT activity” value came out at 59.90 IU/L in the series on KunMing (KM) mice (setting [5]); 326.07 IU/L in the series with KunMing (KM) mice (setting [6]); 42.17 IU/L in the series with KunMing (KM) mice (300 mg/kg oral, alone, 6 h); 128.42 IU/L in the series with KunMing (KM) mice (300 mg/kg oral, alone, 24 h). Also, the “hepatic GSH level with ABT” value with KunMing (KM) mice (at 24 h) is “ABT prevented the decrease”. For the same compound, the “histopathological evaluation of liver, co-treatment with BSO” value with KunMing (KM) mice was “did not aggravate the histopathology”. The “histopathological evaluation of liver” value is given as “diffuse granular degeneration” in the series with KunMing (KM) mice (300 mg/kg oral, alone, 6 h) and “diffuse vacuolation” with KunMing (KM) mice (300 mg/kg oral, alone, 24 h). In the series on KunMing (KM) mice (300 mg/kg oral, alone, at 24 h), the “hepatic GSH level” value is recorded as 11.26 ± 3.67 µM/g protein. In addition, the IC50 on CYP3A4 (30 min pre-incubation with NADPH, read-out: IC50 (+) NADPH) is 19.5 ± 1.04 µM; at CYP3A4 (30 min pre-incubation without NADPH, read-out: IC50 (−) NADPH) it was over 200 µM.

Turning to `O=c1ccc2cc(O)c3occc3c2o1` [M′1], the “Peak Area MLM” value in series [1] (setting [3]) is 14,513. Also, the “Peak Area HLM” value in series [2] (setting [4]) stood at 1288.

Take `O=c1ccc2cc3c(cc2o1)OC(O)C3O` (stereo not drawn) [M5]: the “Peak Area MLM” value in series [1] (setting [3]) is listed as 102,180. For the same compound, in series [2] (setting [4]), the “Peak Area HLM” value is 61,016.

Consider `COc1c2ccoc2cc2oc(=O)ccc12` [5-MOP, 5-Methoxypsoralen], for which the “patients with transient elevations of liver enzymes” value in the series on patients is on record as 5%. The “liver effect of high-dose treatment” value in the series on animals is reported as “hepatocyte changes”.

Consider `O=c1ccc2c(O)c3ccoc3c(O)c2o1` [M3], for which the “Peak Area MLM” value in series [1] (setting [3]) was 164. For the same compound, in series [2] (setting [4]), the “Peak Area HLM” value came to 529.

On to `O=c1ccc2c(O)c3ccoc3cc2o1` [M1], for which, in series [1] (setting [3]), the “Peak Area MLM” value is 1019. Moreover, the “Peak Area HLM” value in series [2] (setting [4]) stood at 557.

Turning to `O=C(O)/C=C\c1ccc2occc2c1O` [M′3], the “Peak Area MLM” value in series [1] (setting [3]) is 418. Further, in series [2] (setting [4]), the “Peak Area HLM” value is listed as 312.

As for “6-carboxymethyl-7-hydroxyl-coumarin [M′4]”, the “Peak Area MLM” value in series [1] (setting [3]) is 96,828. Further, the “Peak Area HLM” value in series [2] (setting [4]) is 34,274.

Source of the values: paper PMC6151710 (Molecules : A Journal of Synthetic Chemistry and Natural …, 2017).
